Assay results as given in patent US20090023884A1, “METHOD FOR STORAGE AND/OR TRANSPORT OF BISPHENOLACETONE AND METHOD FOR PRODUCING AROMATIC POLYCARBONATE” (priority 2007, published 2009).

How the values were obtained:
Type in all cases: physicochemical
[1] = Solubility experiments: BPA dissolved in acetone or phenol in oil bath at set temperature; details: weight ratio BPA to solvent 7.5/2.5
Procedure: 0.6 gram of bisphenolacetone (BPA) powder was placed in a 10 ml graduated tube with a thread seal. Prior to the experiment, BPA flakes were crushed to said powder to ensure uniform packing density at the bottom of the tube. Then 0.2 gram of a solvent was added to the BPA. The solvent was either acetone (present invention) or phenol (comparative). Thus, the weight ratio of BPA to solvent was 7.5/2.5. The tube was then immersed in an oil bath at a certain temperature, and mixed up to full equilibrium. The foregoing was repeated except that the temperature of the oil bath was set at different values. Table 1 mentions the amounts of BPA dissolved in either acetone or phenol at temperatures ranging from 30 to 110° C. The amount of BPA dissolved was calculated from the loss of BPA from the solids layer at the bottom of the tube.

[2] = Stability experiments: 4-isopropenyl phenol (IPP) formation in BPA solutions by GC-MS; details: for IPP signal intensity where solvent is acetone / IPP signal intensity where solvent is phenol: BPA:solvent 6:4 by weight, GC-MS m/z=134 relative to untreated standard BPA sample
Procedure: BPA and a solvent were mixed to produce solutions (containing no solids) having a weight ratio of BPA to solvent of 6:4. The solvent was either acetone (present invention) or phenol (comparative). Where the solvent was acetone the solution was obtained at a temperature of 35° C. and then kept at that temperature. However, in view of the above solubility experiments, where the solvent was phenol the solution could only be obtained at a temperature of 120° C. and was then kept at that temperature. The solutions were heated for a certain time period (3, 7 or 14 days) at either 35° C. (acetone) or 120° C. (phenol). At the end of each time period, the amount of 4-isopropenyl phenol (IPP) was determined by means of GC-MS. Table 2 mentions the intensity of the GC-MS signal at m/z=134, which signal is characteristic for IPP, relative to a standard BPA sample that had not been subjected to said temperature treatment.

[3] = Extended storage of acetone/bisphenolacetone liquid mixture at storage temperature range; details: liquid mixture with acetone

## CC(C)(c1ccc(O)cc1)c1ccc(O)cc1 [BPA, 2,2-bis(4-hydroxyphenyl)propane]
[1]; 30 °C
  Vol. % of BPA dissolved in acetone: 61 Vol. %
[1]; 60 °C
  Vol. % of BPA dissolved in acetone: 72 Vol. %
  Vol. % of BPA dissolved in phenol: 0 Vol. %
[1]; 75 °C
  Vol. % of BPA dissolved in acetone: 72 Vol. %
  Vol. % of BPA dissolved in phenol: 0 Vol. %
[1]; 90 °C
  Vol. % of BPA dissolved in acetone: 74 Vol. %
  Vol. % of BPA dissolved in phenol: 0 Vol. %
[1]; 110 °C
  Vol. % of BPA dissolved in acetone: 74 Vol. %
  Vol. % of BPA dissolved in phenol: 61 Vol. %
[2]; 3 days at 35 °C
  IPP signal intensity where solvent is acetone: 0.1
[2]; 3 days at 120 °C
  IPP signal intensity where solvent is phenol: 14.8
[2]; 7 days at 35 °C
  IPP signal intensity where solvent is acetone: 0.0
[2]; 7 days at 120 °C
  IPP signal intensity where solvent is phenol: 22.3
[2]; 14 days at 35 °C
  IPP signal intensity where solvent is acetone: 0.0
[2]; 14 days at 120 °C
  IPP signal intensity where solvent is phenol: 35.0
[2]; solution in acetone, storage at 35 °C
  thermal degradation of BPA: does not result in any substantial thermal degradation
[2]; solvent phenol, solution kept at 120 °C
  thermal degradation of BPA into IPP: thermally degraded into IPP
[3]
  bisphenolacetone and solution properties upon extended storage: remain unchanged
